Test results as given in US20090286745A1, “INHIBITION OF ALPHA-SYNUCLEIN AGGREGATION” (Zapaloid Limited, priority 2006, published 2009).

Target: ASYN (Homo sapiens, UniProt P37840)
Assay: Kinetic ThT aggregation assay in 25 mM Tris-Cl pH 7.4 with 100 mg/ml PEG 3350
Type: biochemical
Conditions: Tris-Cl pH 7.4; 48 hours; average over the named inhibitors
Protocol: (§1) Kinetic ThT assays were performed by adding ThT directly to the sample at time=0. A 2.5 mM ThT stock solution was made up in the buffer that was used in the aggregation experiment, filtered through a […] Millex GV filter and diluted to 62.5 μM by adding 5 μl to final sample volume of 200 μl in a 96-well polypropylene plate. The increase in fluorescence over time as a result of amyloid formation was measured in a Biotek Synergy HT plate reader at 37° C. with shaking. Cut off filters were used for exitation at 440/30 nm and emission at 485/20 nm. Readings were every 10 minutes with shaking for 500 seconds before each reading.
For compounds ZP-0089 to ZP-0094, a kinetic ThT experiment was performed in 25 mM Tris-Cl at 37° C. to test the inhibition properties of ZP-0089 to ZP-0094 in Tris-Cl pH 7.4. Each 200 μl sample on the 96 well-plate contained 50 μM ASYN, 100 μM inhibitor and 100 mg/ml PEG along with buffer only and ASYN only controls. Samples were measured in triplicate. ThT fluorescence over time was monitored for 48 hours.

Substance | decrease in the endpoint ThT reading [%]
NH2-sgvylvg-NH2 [ZP-0094] | 18±2
NH2-sgvylvg-COOH [ZP-0092] | 18±2
Ac-sgvylvg-COOH [ZP-0091] | 18±2

Target: α-synuclein (Homo sapiens, UniProt P37840)
Assay: Kinetic thioflavin T aggregation assay of ASYN in TBS
Type: biochemical
Conditions: Table 4 interactomer peptides, 50 μM ASYN, 100 μM inhibitor, 37 C, 48 hours, sigmoidal fit
Protocol: as §1
Aggregation assays were carried out with 50 μM ASYN and 100 μM inhibitor with 50 mM tris and 150 mM NaCl and 20 μM Thioflavin T. The reaction volume was 200 μL. Each reaction was set up in a 96 well polypropylene plate with ASYN only and buffer only controls. The reactions were incubated at 37 C with shaking for 48 hours and aggregation was monitored by reading thioflavin T fluorescence as described above.
The aggregation inhibition properties of ZP-0154 and ZP-0155 were tested in kinetic ThT assays in TBS as described above.
All peptides were tested for inhibition of ASYN aggregation in TBS as described above and the kinetic traces were fit using Zyentiafit software which fits the data to a Sigmoidal function f(x)=k+A/(1+exp(−b(t−t0))) from which the lag time, rate of aggregation and total change in ThT fluorescence may be calculated.
A kinetic thioflavin T assay to measure aggregation was set up with 50 uM α-synuclein in TBS and a molar ratio of 1:2 of α-synuclein:inhibitor). Reactions were incubated for 48 hours at 37° C. with shaking and thioflavin T fluorescence was measured every 10 minutes. The kinetic traces were fit using Zyentiafit software which fits the data to a Sigmoidal function f(x)=k+A/(1+exp(−b(t−t0))) from which the lag time, rate of aggregation and total change in ThT fluorescence may be calculated.

Substance | % decrease in ThT fluorescence [%] | % decrease in rate of aggregation [%] | % increase in Lag phase [%]
Ac-hhvivp-NH2 [ZP-0168] | −8.6 | −5.4 | 29.8
Ac-hhviva-NH2 [ZP-0158] | 15.1 | 18.4 | 32.5
Ac-hpviva-NH2 [ZP-0164] | 3.7 | −2.3 | 43.0
Ac-hhtivv-NH2 [ZP-0175] | 21.9 | 16.8 | 89.7
Ac-hhvivw-NH2 [ZP-0172] | −1.7 | 6.9 | 28.1
Ac-hhvlva-NH2 [ZP-0160] | 8.8 | 10.5 | 36.5
Ac-hhvkva-NH2 [ZP-0161] | −5.9 | 2.3 | 19.7
Ac-hhvvva-NH2 [ZP-0159] | 19.8 | 18.6 | 36.6
Ac-hhvivt-NH2 [ZP-0170] | 24.5 | 29.3 | 29.4
Ac-hhvivy-NH2 [ZP-0171] | 13.9 | 13.2 | 43.6
Ac-hhtivk-NH2 [ZP-0179] | 0.6 | −0.6 | 30.4
Ac-hhveva-NH2 [ZP-0162] | 6.3 | 6.6 | 33.4
Ac-hhvivv-NH2 [ZP-0169] | −0.5 | −13.3 | 26.1

The next lines start with the values.

% decrease in ThT fluorescence [%] | % decrease in rate of aggregation [%] | % increase in Lag phase [%] | Substance
1.4 | −5.6 | 23.6 | Ac-qysvpi-NH2 [ZP-0204]
42.3 | 34.3 | 7.7 | NH3-qykvli-NH2 [ZP-0222]
22.8 | −1.2 | 29.4 | Ac-hhtlva-NH2 [ZP-0181]
40.8 | 46.2 | 38.2 | NH3-pysvli-NH2 [ZP-0228]
30.7 | 29.7 | 16.1 | Ac-hhtlvv-NH2 [ZP-0186]
19.8 | 18.4 | 30.3 | Ac-hhtvva-NH2 [ZP-0180]
20.4 | 4.8 | −12.6 | Ac-drysvli-NH2 [ZP-0214]
25.6 | 12.9 | 29.4 | Ac-ekysvli-NH2 [ZP-0213]
11.6 | 7.7 | 38.8 | Ac-hhttvy-NH2 [ZP-0194]
3.3 | 8.4 | 25.9 | Ac-qypvli-NH2 [ZP-0206]
16.6 | −11.9 | 30.6 | Ac-qyspli-NH2 [ZP-0205]
8.7 | −15.8 | 31.4 | Ac-hhtevy-NH2 [ZP-0193]
51.1 | 44.9 | −14.4 | Ac-rysvli-NH2 [ZP-0212]
17.8 | 24.3 | 33.5 | NH3-qysvlv-NH2 [ZP-0229]
53.5 | 54.5 | −28.8 | Ac-qykvli-NH2 [ZP-0202]
5.5 | 3.6 | 29.7 | Ac-qpsvli-NH2 [ZP-0207]
24.7 | 22.8 | −22.4 | NH3-qytvli-NH2 [ZP-0221]
27.6 | 17.5 | 3.1 | NH3-qysvli-NH2 [ZP-0215]
10.9 | 15.9 | 32.4 | NH3-qysvlt-NH2 [ZP-0230]

Same assay, conditions: Table 5 structure stabilising peptides, 50 uM α-synuclein, 1:2 α-synuclein:inhibitor, 48 hours, 37° C., relative to α-synuclein only

Substance | % decrease in ThT fluorescence [%] | % decrease in rate of aggregation [%] | % increase in Lag phase [%]
Ac-kgegk-NH2 [ZP-0231] | 4.3 | 2.7 | 11.2
Ac-egkgegk-NH2 [ZP-0241] | 6.1 | 10.9 | 16.6
Ac-rdr-NH2 [ZP-0240] | 18.5 | −0.6 | 23.4
Ac-rgdgd-NH2 [ZP-0247] | 12.2 | 6.7 | 10.7

Same assay, conditions: structure stabilising peptides, 48 hours

Substance | endpoint thioflavin T fluorescence (in words)
Ac-rdr-NH2 [ZP-0240] | significant decrease

Same assay, conditions: timeframe of the assay 48 h, 50 μM ASYN, 100 μM inhibitor

Substance | increase in ThT signal compared to ASYN only
NMP-NMP-NMP-NMP-kvfgtaa-NH2 [ZP-0154] | No significant increase
NMP-NMP-NMP-kvfgtaa-NH2 [ZP-0155] | No significant increase
